Source: PMC9229919, “4-Aminoquinoline-Based Adamantanes as Potential Anticholinesterase Agents in Symptomatic Treatment of Alzheimer’s Disease” (Pharmaceutics, 2022)
Read-outs that look alike come from different tables or passages of the source.

Key:
recombinant human AChE = target: T1, recombinant human AChE (Homo sapiens, UniProt P22303); experiment: biochemical; type: biochemical; details: for IS: IS = Ki(BChE)/Ki(AChE), IS > 1 selective to AChE
T1 construct: gift of Dr Florian Nachon (Armed Forces Biomedical Research Institute, Brétigny-sur-Orge, France)
T1 sequence (P22303 32-614): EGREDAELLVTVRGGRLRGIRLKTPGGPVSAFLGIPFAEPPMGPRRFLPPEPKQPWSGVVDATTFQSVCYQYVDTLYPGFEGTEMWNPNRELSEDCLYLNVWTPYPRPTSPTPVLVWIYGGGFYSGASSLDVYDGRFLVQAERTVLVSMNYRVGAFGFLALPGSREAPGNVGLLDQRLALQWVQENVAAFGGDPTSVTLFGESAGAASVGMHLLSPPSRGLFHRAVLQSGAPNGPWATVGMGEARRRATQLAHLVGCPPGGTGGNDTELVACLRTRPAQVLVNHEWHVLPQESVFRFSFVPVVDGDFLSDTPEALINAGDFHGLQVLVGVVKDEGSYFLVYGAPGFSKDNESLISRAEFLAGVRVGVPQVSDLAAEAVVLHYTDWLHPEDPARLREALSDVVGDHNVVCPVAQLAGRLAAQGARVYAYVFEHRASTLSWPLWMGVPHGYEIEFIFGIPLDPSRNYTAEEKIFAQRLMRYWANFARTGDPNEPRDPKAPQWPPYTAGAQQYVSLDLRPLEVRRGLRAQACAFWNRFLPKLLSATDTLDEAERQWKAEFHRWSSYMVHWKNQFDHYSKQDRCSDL
Method in brief: (§1)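 Modified Ellman assay with acetylthiocholine and DTNB in 0.1 M sodium phosphate pH 7.4 (enzymes diluted with 0.1% BSA), ≤0.2% DMSO, 25 °C. At least three inhibitor concentrations per substrate level; Ki,app from Hunter–Downs equation, Ki from y-intercept and inhibition type from Ki,app vs [S].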

purified human BChE = target: T2, purified human BChE (Homo sapiens, UniProt P06276); experiment: biochemical; type: biochemical
T2 construct: possibly also a gift of Dr Florian Nachon (the sentence is ambiguous)
T2 sequence (P06276 29-602): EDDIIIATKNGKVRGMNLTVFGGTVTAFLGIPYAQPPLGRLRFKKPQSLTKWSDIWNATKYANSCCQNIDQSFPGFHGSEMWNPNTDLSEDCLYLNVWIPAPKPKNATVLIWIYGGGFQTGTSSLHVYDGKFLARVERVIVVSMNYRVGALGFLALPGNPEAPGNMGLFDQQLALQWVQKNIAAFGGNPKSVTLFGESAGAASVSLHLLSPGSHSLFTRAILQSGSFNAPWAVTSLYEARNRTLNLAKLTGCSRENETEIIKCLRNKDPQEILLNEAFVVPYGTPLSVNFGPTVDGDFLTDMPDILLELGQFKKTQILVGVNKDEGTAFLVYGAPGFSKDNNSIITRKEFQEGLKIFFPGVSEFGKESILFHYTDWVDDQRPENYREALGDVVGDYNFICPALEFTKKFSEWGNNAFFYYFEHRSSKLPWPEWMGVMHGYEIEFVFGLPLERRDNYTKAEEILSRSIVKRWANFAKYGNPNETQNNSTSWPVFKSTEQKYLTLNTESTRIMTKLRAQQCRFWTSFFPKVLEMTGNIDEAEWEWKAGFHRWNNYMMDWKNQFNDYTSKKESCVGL
Method in brief: as §1

[1] = Reverse-phase thin-layer chromatographic lipophilicity (RF, RM0); type: physicochemical; details: for RM0: intercept of RM = RM0 + bC; for b: slope of RM = RM0 + bC; for RF, Methanol/Water/Hydrochloric acid (conc.), mobile phase I / RF, Dioxane/Water/Hydrochloric acid (conc.), mobile phase II / RF, Methanol/Water/Hydrochloric acid (conc.), mobile phase II / RF, Acetone/Water/Hydrochloric acid (conc.), mobile phase III / RF, Dioxane/Water/Hydrochloric acid (conc.), mobile phase III / RF, Methanol/Water/Hydrochloric acid (conc.), mobile phase III / RF, Dioxane/Water/Hydrochloric acid (conc.), mobile phase IV / RF, Acetone/Water/Hydrochloric acid (conc.), mobile phase IV / RF, Methanol/Water/Hydrochloric acid (conc.), mobile phase IV / RF, Acetone/Water/Hydrochloric acid (conc.), mobile phase IX / RF, Methanol/Water/Hydrochloric acid (conc.), mobile phase IX / RF, Dioxane/Water/Hydrochloric acid (conc.), mobile phase V / RF, Acetone/Water/Hydrochloric acid (conc.), mobile phase V / RF, Methanol/Water/Hydrochloric acid (conc.), mobile phase V / RF, Dioxane/Water/Hydrochloric acid (conc.), mobile phase VI / RF, Acetone/Water/Hydrochloric acid (conc.), mobile phase VI / RF, Methanol/Water/Hydrochloric acid (conc.), mobile phase VI / RF, Acetone/Water/Hydrochloric acid (conc.), mobile phase VII / RF, Methanol/Water/Hydrochloric acid (conc.), mobile phase VII / RF, Acetone/Water/Hydrochloric acid (conc.), mobile phase VIII / RF, Methanol/Water/Hydrochloric acid (conc.), mobile phase VIII / RF, Acetone/Water/Hydrochloric acid (conc.), mobile phase I / RF, Dioxane/Water/Hydrochloric acid (conc.), mobile phase I / RF, Acetone/Water/Hydrochloric acid (conc.), mobile phase II: RP-18 silica; for RF, Methanol/Water/Hydrochloric acid (conc.), mobile phase I: I = 90%MeOH/5%H2O/5%HCl; for RF, Dioxane/Water/Hydrochloric acid (conc.), mobile phase II: II = 80%Dioxane/15%H2O/5%HCl; for RF, Methanol/Water/Hydrochloric acid (conc.), mobile phase II: II = 85%MeOH/10%H2O/5%HCl; for RF, Acetone/Water/Hydrochloric acid (conc.), mobile phase III: III = 70%AC/25%H2O/5%HCl; for RF, Dioxane/Water/Hydrochloric acid (conc.), mobile phase III: III = 70%Dioxane/25%H2O/5%HCl; for RF, Methanol/Water/Hydrochloric acid (conc.), mobile phase III: III = 80%MeOH/15%H2O/5%HCl; for RF, Dioxane/Water/Hydrochloric acid (conc.), mobile phase IV: IV = 60%Dioxane/35%H2O/5%HCl; for RF, Acetone/Water/Hydrochloric acid (conc.), mobile phase IV: IV = 65%AC/30%H2O/5%HCl; for RF, Methanol/Water/Hydrochloric acid (conc.), mobile phase IV: IV = 75%MeOH/20%H2O/5%HCl; for RF, Acetone/Water/Hydrochloric acid (conc.), mobile phase IX: IX = 40%AC/55%H2O/5%HCl; for RF, Methanol/Water/Hydrochloric acid (conc.), mobile phase IX: IX = 50%MeOH/45%H2O/5%HCl; for RF, Dioxane/Water/Hydrochloric acid (conc.), mobile phase V: V = 50%Dioxane/45%H2O/5%HCl; for RF, Acetone/Water/Hydrochloric acid (conc.), mobile phase V: V = 60%AC/35%H2O/5%HCl; for RF, Methanol/Water/Hydrochloric acid (conc.), mobile phase V: V = 70%MeOH/25%H2O/5%HCl; for RF, Dioxane/Water/Hydrochloric acid (conc.), mobile phase VI: VI = 40%Dioxane/55%H2O/5%HCl; for RF, Acetone/Water/Hydrochloric acid (conc.), mobile phase VI: VI = 55%AC/40%H2O/5%HCl; for RF, Methanol/Water/Hydrochloric acid (conc.), mobile phase VI: VI = 65%MeOH/30%H2O/5%HCl; for RF, Acetone/Water/Hydrochloric acid (conc.), mobile phase VII: VII = 50%AC/45%H2O/5%HCl; for RF, Methanol/Water/Hydrochloric acid (conc.), mobile phase VII: VII = 60%MeOH/35%H2O/5%HCl; for RF, Acetone/Water/Hydrochloric acid (conc.), mobile phase VIII: VIII = 45%AC/50%H2O/5%HCl; for RF, Methanol/Water/Hydrochloric acid (conc.), mobile phase VIII: VIII = 55%MeOH/40%H2O/5%HCl; for RF, Acetone/Water/Hydrochloric acid (conc.), mobile phase I: I = 80%AC/15%H2O/5%HCl; for RF, Dioxane/Water/Hydrochloric acid (conc.), mobile phase I: I = 90%Dioxane/5%H2O/5%HCl; for RF, Acetone/Water/Hydrochloric acid (conc.), mobile phase II: II = 75%AC/20%H2O/5%HCl
Method in brief: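 Reverse-phase TLC using mobile phases of methanol, acetone or dioxane with water and hydrochloric acid. Methanol varied in 10% steps; development distance 4.5 cm, ambient temperature (22±2 °C). RF measured and RM0 derived from retention.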

[2] = Ferric reducing antioxidant power (FRAP) assay; details: mean ± standard error of three experiments;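 also: expressed as µM Fe2+ equivalents from an FeSO4·7H2O standard curve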
Method in brief: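 Compounds at 10 and 100 µM were mixed with FRAP reagent (300 mM acetate buffer pH 3.6, TPTZ in HCl, FeCl3, 10:1:1) and incubated 60 min at 37 °C. Fe^2+-TPTZ formation read at 593 nm against a blank. Values derived from an Fe2SO4·7H2O standard curve, three independent experiments.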

[3] = log (Ki/µM AChE), read-out: Y Measured 1 log(ki)Ache (converted)
[4] = ± standard error, 25 °C, ATCh substrate, read-out: Ki AChE
[5] = logarithm of Ki in µM, BChE, dependent variable of the QSAR model, read-out: Y Measured 2 log(ki)Bche, log (Ki/µM BChE) (converted)
[6] = ± standard error, 25 °C, ATCh substrate, read-out: Ki BChE
[7] = Acetone/Water/Hydrochloric acid (conc.)
[8] = Dioxane/Water/Hydrochloric acid (conc.)
[9] = Methanol/Water/Hydrochloric acid (conc.)

Compound	IS (recombinant human AChE)	Ki (recombinant human AChE; [4])	Ki (purified human BChE; [6])	RM0 [1, 7]	b [1, 7]	RM0 [1, 8]	b [1, 8]	RM0 [1, 9]	b [1, 9]	RF, Methanol/Water/Hydrochloric acid (conc.), mobile phase I [1]	RF, Dioxane/Water/Hydrochloric acid (conc.), mobile phase II [1]	RF, Methanol/Water/Hydrochloric acid (conc.), mobile phase II [1]	RF, Acetone/Water/Hydrochloric acid (conc.), mobile phase III [1]	RF, Dioxane/Water/Hydrochloric acid (conc.), mobile phase III [1]	RF, Methanol/Water/Hydrochloric acid (conc.), mobile phase III [1]	RF, Dioxane/Water/Hydrochloric acid (conc.), mobile phase IV [1]	RF, Acetone/Water/Hydrochloric acid (conc.), mobile phase IV [1]	RF, Methanol/Water/Hydrochloric acid (conc.), mobile phase IV [1]	RF, Acetone/Water/Hydrochloric acid (conc.), mobile phase IX [1]	RF, Methanol/Water/Hydrochloric acid (conc.), mobile phase IX [1]	other results
Clc1ccc2c(NCCNCCC34CC5CC(CC(C5)C3)C4)ccnc2c1 [Compound 8]	0.6	1.6 ± 0.1 µM	0.92 ± 0.07 µM	2.227	3.421	1.144	2.1084	2.713	3.446	0.69	0.74	0.63	0.55	0.68	0.45	0.66	0.5	0.47	0.08	0.08	Ki (recombinant human AChE; [3]): 1.6 µM; Ki (purified human BChE; [5]): 0.92 µM; RF, Dioxane/Water/Hydrochloric acid (conc.), mobile phase V [1]: 0.47; RF, Acetone/Water/Hydrochloric acid (conc.), mobile phase V [1]: 0.39; RF, Methanol/Water/Hydrochloric acid (conc.), mobile phase V [1]: 0.39; RF, Dioxane/Water/Hydrochloric acid (conc.), mobile phase VI [1]: 0.28; RF, Acetone/Water/Hydrochloric acid (conc.), mobile phase VI [1]: 0.34; RF, Methanol/Water/Hydrochloric acid (conc.), mobile phase VI [1]: 0.28; RF, Acetone/Water/Hydrochloric acid (conc.), mobile phase VII [1]: 0.29; RF, Methanol/Water/Hydrochloric acid (conc.), mobile phase VII [1]: 0.18; RF, Acetone/Water/Hydrochloric acid (conc.), mobile phase VIII [1]: 0.21; RF, Methanol/Water/Hydrochloric acid (conc.), mobile phase VIII [1]: 0.13; FRAP ([2]; 10 µM compound): 33 ± 12 µM; FRAP ([2]; 100 µM compound): 62 ± 7 µM
Clc1ccc2c(NCCN(CCC34CC5CC(CC(C5)C3)C4)CCC34CC5CC(CC(C5)C3)C4)ccnc2c1 [Compound 9]	0.3	5.2 ± 0.2 µM	1.5 ± 0.2 µM	3.559	4.683	2.268	3.179	5.446	5.91	0.44	0.65	0.31	0.33	0.55	0.11	0.42	0.28	0.1	0	0	Ki (recombinant human AChE; [3]): 5.2 µM; Ki (purified human BChE; [5]): 1.5 µM; RF, Acetone/Water/Hydrochloric acid (conc.), mobile phase I [1]: 0.58; RF, Dioxane/Water/Hydrochloric acid (conc.), mobile phase I [1]: 0.75; RF, Acetone/Water/Hydrochloric acid (conc.), mobile phase II [1]: 0.5; RF, Dioxane/Water/Hydrochloric acid (conc.), mobile phase V [1]: 0.11; RF, Acetone/Water/Hydrochloric acid (conc.), mobile phase V [1]: 0.13; RF, Methanol/Water/Hydrochloric acid (conc.), mobile phase V [1]: 0.05; RF, Dioxane/Water/Hydrochloric acid (conc.), mobile phase VI [1]: 0; RF, Acetone/Water/Hydrochloric acid (conc.), mobile phase VI [1]: 0.09; RF, Methanol/Water/Hydrochloric acid (conc.), mobile phase VI [1]: 0.01; RF, Acetone/Water/Hydrochloric acid (conc.), mobile phase VII [1]: 0; RF, Methanol/Water/Hydrochloric acid (conc.), mobile phase VII [1]: 0; RF, Acetone/Water/Hydrochloric acid (conc.), mobile phase VIII [1]: 0; RF, Methanol/Water/Hydrochloric acid (conc.), mobile phase VIII [1]: 0; FRAP ([2]; 10 µM compound): 3.4 ± 0.0 µM; FRAP ([2]; 100 µM compound): 29 ± 6 µM
Clc1ccc2c(NCCCCN(CCC34CC5CC(CC(C5)C3)C4)CCC34CC5CC(CC(C5)C3)C4)ccnc2c1 [Compound 10]	0.4	2.4 ± 0.2 µM	1 ± 0.1 µM	3.647	4.824	1.984	2.852	5.456	5.91	0.44	0.65	0.31	0.33	0.59	0.1	0.47	0.28	0.1	0	0	RF, Acetone/Water/Hydrochloric acid (conc.), mobile phase I [1]: 0.59; RF, Dioxane/Water/Hydrochloric acid (conc.), mobile phase I [1]: 0.75; RF, Acetone/Water/Hydrochloric acid (conc.), mobile phase II [1]: 0.52; RF, Dioxane/Water/Hydrochloric acid (conc.), mobile phase V [1]: 0.14; RF, Acetone/Water/Hydrochloric acid (conc.), mobile phase V [1]: 0.13; RF, Methanol/Water/Hydrochloric acid (conc.), mobile phase V [1]: 0.05; RF, Dioxane/Water/Hydrochloric acid (conc.), mobile phase VI [1]: 0; RF, Acetone/Water/Hydrochloric acid (conc.), mobile phase VI [1]: 0.09; RF, Methanol/Water/Hydrochloric acid (conc.), mobile phase VI [1]: 0.01; RF, Acetone/Water/Hydrochloric acid (conc.), mobile phase VII [1]: 0; RF, Methanol/Water/Hydrochloric acid (conc.), mobile phase VII [1]: 0; RF, Acetone/Water/Hydrochloric acid (conc.), mobile phase VIII [1]: 0; RF, Methanol/Water/Hydrochloric acid (conc.), mobile phase VIII [1]: 0; FRAP ([2]; 10 µM compound): 13 ± 4 µM; FRAP ([2]; 100 µM compound): 90 ± 6 µM
